Molecular target: T1, panel of 442 kinases (Homo sapiens, UniProt Q9H2K8)
T1 construct: purchased KINOMEscan
T1 sequence (Q9H2K8 1-898): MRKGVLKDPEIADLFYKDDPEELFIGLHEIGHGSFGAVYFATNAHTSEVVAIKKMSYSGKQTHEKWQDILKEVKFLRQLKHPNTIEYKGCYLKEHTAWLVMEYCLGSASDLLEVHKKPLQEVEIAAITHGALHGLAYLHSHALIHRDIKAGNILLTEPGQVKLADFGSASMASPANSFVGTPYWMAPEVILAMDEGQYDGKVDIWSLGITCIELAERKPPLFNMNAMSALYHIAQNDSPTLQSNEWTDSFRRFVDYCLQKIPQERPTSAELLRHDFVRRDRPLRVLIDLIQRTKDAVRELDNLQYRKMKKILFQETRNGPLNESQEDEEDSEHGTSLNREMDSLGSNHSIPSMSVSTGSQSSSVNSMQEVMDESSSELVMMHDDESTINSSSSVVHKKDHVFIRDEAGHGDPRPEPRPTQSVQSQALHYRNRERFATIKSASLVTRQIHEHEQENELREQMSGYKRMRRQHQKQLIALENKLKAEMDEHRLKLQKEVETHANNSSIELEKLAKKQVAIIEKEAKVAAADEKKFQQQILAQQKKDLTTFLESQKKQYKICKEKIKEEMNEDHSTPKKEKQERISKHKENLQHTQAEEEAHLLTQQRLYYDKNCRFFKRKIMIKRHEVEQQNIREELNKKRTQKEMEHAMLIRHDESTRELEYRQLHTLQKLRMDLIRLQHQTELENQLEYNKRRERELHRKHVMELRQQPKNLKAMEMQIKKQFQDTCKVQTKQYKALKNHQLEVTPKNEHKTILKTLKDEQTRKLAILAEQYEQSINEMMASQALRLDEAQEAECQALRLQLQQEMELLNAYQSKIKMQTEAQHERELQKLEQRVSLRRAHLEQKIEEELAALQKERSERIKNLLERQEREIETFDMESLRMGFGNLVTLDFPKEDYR
Format: binding
Conditions: kinase TAOK3; compound concentration 10 µM
Description: We assessed the selectivity of members of this scaffold using the KINOMEscan methodology across a near comprehensive panel of 442 kinases [[18,27]].

SMILES	% Ctrl, TAOK3 [% Ctrl]
CCOc1cc(C(=O)N2CCC(N3CCN(C)CC3)CC2)ccc1Nc1ncc2c(n1)N(C1CCCC1)c1ccccc1C(=O)N2C [Compound 26]	82
COc1cc(C(=O)N2CCC(N3CCN(C)CC3)CC2)ccc1Nc1ncc2c(n1)N(C1CCCC1)c1ccccc1C(=O)N2C [Compound 25, 11-cyclopentyl-2-((2-methoxy-4-(4-(4-methylpiperazin-1-yl)piperidine-1-carbonyl)phenyl)amino)-5-methyl-5H-benzo[e]pyrimido[5,4-b][1,4]diazepin-6(11H)-one]	100
COc1cc(C(=O)N2CCC(N3CCN(C)CC3)CC2)ccc1Nc1ncc2c(n1)N1CCc3cccc(c31)C(=O)N2C [Compound 24]	100
COc1cc(C(=O)N2CCC(N3CCN(C)CC3)CC2)ccc1Nc1ncc2c(n1)N(C)c1ccccc1C(=O)N2C [15 (LRRK2-IN-1)]	24

Source: paper PMC3914206
